One assay addresses T1, PDE4A1 (Homo sapiens, UniProt P27815).
T1 construct: they are full-length with N-terminal GST tag; GST (N); purchased BPS Biosciences 60040; host or cells: baculovirus infected Sf9 cells
Nature of the assay: PDE enzyme activity assay (HTRF cGMP), PDE4A1. The format is biochemical. As to conditions: read-out: PDE4A1 inhibition (IC50). On the technique in general: In TR-FRET formats the signal depends on donor and acceptor labels being close together.

Another assay has as its target PDE4D7 (Homo sapiens, UniProt Q08499). As to the kind of experiment: PDE enzyme activity assay (HTRF cGMP), PDE4D7. It counts as biochemical. As to conditions: read-out: PDE4D7 inhibition (IC50). An excerpt: The biochemical assay to measure PDE5A, PDE9A isoform b, PDE4D7, and PDE4A1 enzyme activities relies on the HTRF cGMP assay kit from CisBio (CisBio, Cat. #62GM2PEB), that determines the amount of cGMP present in the reaction. The enzymes were obtained from BPS Biosciences (GenBank Accession number for PDE5A: NM_001083, Cat. #60050; PDE9A: NM_001001567, Cat. #60090; PDE4D7: NM_001165899, Cat. #60047; and PDE4A1: U97584, Cat. #60040) and they are full-length with N-terminal GST tag. They were expressed in a baculovirus infected Sf9 cell expression system.
For each enzyme, enzyme activity assay was carried out in a 384-well plate in a final volume of 20 μL, as follows: • 2.5 μL of vehicle or studied compound 4× concentrated prepared in assay buffer containing 50 mM Tris-HCl, 6 mM MgCl2, pH 7.4 (PDE5A, PDE4D7, PDE4A1) and additionally 0.03% Tween-20 (PDE9A). Final percentage of DMSO was 0.5%. • 2.5 μL of PDE5A (7 μg/mL) or 2.5 μL PDE9A (0.2 μg/mL) or 2.5 μL PDE4D7 (1.25 μg/mL) or 2.5 μL PDE4A1 (1.5 μg/mL) diluted in assay buffer. […]
Fluorescence of each well was determined at […] using the plate reader EnVision (Perkin-Elmer). Results were calculated from the 665 nm/620 nm ratio. […]

For the next assay, the target named is HDAC1 (Homo sapiens, UniProt Q13547). Nature of the assay: HDAC enzyme activity assay (fluorogenic substrate), HDAC1. It counts as biochemical. The conditions noted are these: read-out: HDAC1 inhibition (IC50).
For a further assay, the target named is T2, PDE9A isoform b (Homo sapiens, UniProt O76083).
T2 construct: they are full-length with N-terminal GST tag; GST (N); purchased BPS Biosciences 60090; host or cells: baculovirus infected Sf9 cells
Nature of the assay: PDE enzyme activity assay (HTRF cGMP), PDE9A. The format is biochemical. The conditions noted are these: recombinant enzyme; read-out: PDE9A inhibition (IC50).

For assay [1], the system named is pCREB. Nature of the assay: PDE activity in wild type primary neurons (Western blot pCREB). The format is cell-based. The conditions noted are these: Mus musculus, Neuron, 0.5 h, 30 min, EC50 = 50% increase in pCREB over basal. A general note: A western blot detects proteins with antibodies after separation by electrophoresis.
The subject of assay [2] is acetylated histone 3 at Lys9 (AcH3K9). As to the kind of experiment: HDAC activity in wild type primary neurons (Western blot AcH3K9). As to conditions: 30 min, EC50 = 50% increase in AcH3K9 over basal. The format is cell-based, mouse.
The test system of assay [3] is phosphorylated tau (p-tau). As to the kind of experiment: AD-related markers in Tg2576 neurons: pTau. It counts as cell-based. As to conditions: Mus musculus, Neuron, 48 h, treated two days, EC50 = 50% decrease in pTau over basal.
The test system of assay [4] is pCREB. As to the kind of experiment: In-vivo activity, hippocampus of wild type mice: pCREB. Also noted: species or system mouse. The conditions noted are these: i.p. 40 mg/kg, hippocampus one hour later. How it is done: (§1) To determine the ability of the compounds to inhibit HDAC and PDE in the brain, the compound was administered to wild type mice by i.p. at a dose of 40 mg/kg (n=3). Another group of animals received the vehicle (1/1/8, v:v:v, DMSO/Tween 20/saline). One hour later, mice were sacrificed by cervical dislocation and their hippocampus was quickly dissected from the brains.
(§2) Total tissue homogenates were obtained by homogenizing the hippocampus in a cold lysis buffer with protease inhibitors (0.2 M NaCl, 0.1 M HEPES, 10% glycerol, 200 mM NaF, 2 mM Na4P2O7, 5 mM EDTA, 1 mM EGTA, 2 mM DTT, 0.5 mM PMSF, 1 mM Na3VO4 and Complete Protease Inhibitor Cocktail, Roche Diagnostics). The homogenate was then centrifuged at 14,000×g at 4° C. for 20 min and the supernatant aliquoted and stored at −80° C. Total protein concentrations were determined using the BioRad Bradford protein assay (BioRad Laboratories). Protein samples were analyzed as described in the “in vitro” section.

The test system of a further assay is AcH3. Nature of the assay: In-vivo activity, hippocampus of wild type mice: AcH3. As to conditions: i.p. 40 mg/kg, hippocampus one hour later. Also on record: species or system mouse. Here is the method: as §1, §2
In another assay the test system is pTau. As to the kind of experiment: AD-related markers in Tg2576 mice after chronic treatment: pTau. The format is in vivo, mouse. The conditions noted are these: chronic treatment (3-5 weeks), hippocampal homogenates. How it is done: AD-related markers (APP processing, pTau and acetylated-tubulin) in Tg2576 mice. The effects of the compounds were also analysed in Tg2576 mice after chronic treatment (3-5 weeks) using hippocampal homogenates obtained in a buffer containing SDS (2%) and following the same protocol as described in the in vitro studies.

Where two headings read alike, the source gives them in different places. A value given as a limit tells only on which side of the number the result lay.

As a reminder, the IC50 is the concentration that gives 50% inhibition.

HDAC1, sequence (Q13547 whole entry, canonical isoform): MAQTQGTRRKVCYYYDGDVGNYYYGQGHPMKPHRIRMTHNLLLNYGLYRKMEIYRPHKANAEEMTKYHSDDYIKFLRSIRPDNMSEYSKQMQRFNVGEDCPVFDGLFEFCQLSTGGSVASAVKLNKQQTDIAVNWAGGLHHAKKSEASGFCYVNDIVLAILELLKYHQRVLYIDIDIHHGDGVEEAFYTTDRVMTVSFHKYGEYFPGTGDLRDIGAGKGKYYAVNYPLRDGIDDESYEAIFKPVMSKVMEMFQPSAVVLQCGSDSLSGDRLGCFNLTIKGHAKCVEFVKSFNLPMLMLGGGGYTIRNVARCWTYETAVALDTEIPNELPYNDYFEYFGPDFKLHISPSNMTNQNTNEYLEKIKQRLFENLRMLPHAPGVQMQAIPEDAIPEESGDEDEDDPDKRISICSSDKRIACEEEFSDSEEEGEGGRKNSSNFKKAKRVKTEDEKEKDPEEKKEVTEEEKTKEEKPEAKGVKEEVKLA
T1 sequence (P27815 1-647 isoform P27815-4): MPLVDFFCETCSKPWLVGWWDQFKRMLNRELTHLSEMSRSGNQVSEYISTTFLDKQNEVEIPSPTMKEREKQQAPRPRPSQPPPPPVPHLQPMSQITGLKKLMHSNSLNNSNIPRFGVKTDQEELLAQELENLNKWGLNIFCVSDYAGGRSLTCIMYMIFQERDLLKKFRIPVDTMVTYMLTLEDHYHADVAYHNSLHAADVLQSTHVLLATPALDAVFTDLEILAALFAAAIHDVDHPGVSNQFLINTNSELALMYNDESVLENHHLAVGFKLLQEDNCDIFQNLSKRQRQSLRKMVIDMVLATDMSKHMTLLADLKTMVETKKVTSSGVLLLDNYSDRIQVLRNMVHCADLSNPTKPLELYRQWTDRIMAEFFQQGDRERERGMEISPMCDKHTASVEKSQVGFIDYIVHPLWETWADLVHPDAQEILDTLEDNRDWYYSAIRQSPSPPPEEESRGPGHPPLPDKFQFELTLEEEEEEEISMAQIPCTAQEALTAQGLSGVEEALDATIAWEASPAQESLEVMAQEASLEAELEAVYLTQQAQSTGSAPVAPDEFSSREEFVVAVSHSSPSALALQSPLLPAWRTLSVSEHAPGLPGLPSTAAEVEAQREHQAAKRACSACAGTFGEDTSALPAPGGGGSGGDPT
PDE4D7, sequence (Q08499 1-748 isoform Q08499-11): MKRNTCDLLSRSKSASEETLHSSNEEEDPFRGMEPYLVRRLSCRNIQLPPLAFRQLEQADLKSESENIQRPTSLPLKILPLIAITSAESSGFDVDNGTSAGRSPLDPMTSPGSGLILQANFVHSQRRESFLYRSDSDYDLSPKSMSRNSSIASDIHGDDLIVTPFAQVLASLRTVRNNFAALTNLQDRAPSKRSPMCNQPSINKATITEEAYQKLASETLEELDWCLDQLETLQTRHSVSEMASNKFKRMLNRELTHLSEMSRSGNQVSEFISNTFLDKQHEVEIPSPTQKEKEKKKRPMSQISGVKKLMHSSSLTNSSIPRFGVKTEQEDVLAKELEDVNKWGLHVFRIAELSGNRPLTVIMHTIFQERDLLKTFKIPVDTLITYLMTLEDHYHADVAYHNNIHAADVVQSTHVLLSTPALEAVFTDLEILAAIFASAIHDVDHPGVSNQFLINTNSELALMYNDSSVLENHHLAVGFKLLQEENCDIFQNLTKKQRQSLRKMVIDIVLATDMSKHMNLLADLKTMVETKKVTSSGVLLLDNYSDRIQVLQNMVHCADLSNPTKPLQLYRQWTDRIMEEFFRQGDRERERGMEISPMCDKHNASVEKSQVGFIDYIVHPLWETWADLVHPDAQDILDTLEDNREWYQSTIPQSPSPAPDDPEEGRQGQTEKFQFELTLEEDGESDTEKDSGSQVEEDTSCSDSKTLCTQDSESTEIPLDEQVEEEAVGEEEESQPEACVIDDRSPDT
T2 sequence (O76083 1-533 isoform O76083-2): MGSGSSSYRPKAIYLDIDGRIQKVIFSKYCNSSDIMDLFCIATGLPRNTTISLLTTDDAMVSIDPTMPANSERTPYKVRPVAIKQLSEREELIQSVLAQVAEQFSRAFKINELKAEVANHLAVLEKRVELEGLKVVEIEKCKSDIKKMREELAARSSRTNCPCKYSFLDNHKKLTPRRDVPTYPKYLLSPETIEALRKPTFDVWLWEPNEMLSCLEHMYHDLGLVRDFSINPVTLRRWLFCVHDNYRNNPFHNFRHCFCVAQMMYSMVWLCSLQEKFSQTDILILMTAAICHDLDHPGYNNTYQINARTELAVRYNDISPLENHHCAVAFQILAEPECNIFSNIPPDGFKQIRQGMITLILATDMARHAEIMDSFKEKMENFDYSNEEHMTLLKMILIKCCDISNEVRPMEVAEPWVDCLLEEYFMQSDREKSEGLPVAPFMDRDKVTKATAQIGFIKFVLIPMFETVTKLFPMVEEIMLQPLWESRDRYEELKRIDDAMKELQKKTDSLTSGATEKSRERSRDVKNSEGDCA

Regarding `COc1ccc(N(C(=O)c2c(Cl)cncc2Cl)C2CCN(c3ncc(C(=O)NO)cn3)CC2)cc1OC1CCCC1` [Example 5-04], the figures for the IC50 at PDE4A1, at PDE4D7 and on HDAC1 were over 10 µM, over 10 µM and 0.01 to 1 µM, respectively.

Turning to `COc1ccc(N(CCCCCCC(=O)NO)C(=O)c2c(Cl)cncc2Cl)cc1OC1CCCC1` [Example 5-05, 7-(N-[3,5-Dichloropyridin-4-ylcarbonyl]-N-[(3-(cyclopentyloxy)-4-methoxyphenyl)]amino)-N-hydroxyheptanamide], the IC50 is 1 to 10 µM on PDE4A1 (recombinant enzyme), over 10 µM at PDE4D7 (recombinant enzyme) and 0.01 to 1 µM at HDAC1 (recombinant enzyme).

In the case of `CN1CC(=O)N2[C@H](c3ccc4c(c3)OCO4)c3[nH]c4ccccc4c3C[C@@H]2C1=O` [Tadalafil, reference compound], the IC50 at PDE9A isoform b and on HDAC1 (recombinant enzyme) was over 10 µM each time. The EC50 (with pCREB [1]; in assay [3]) was 0.01 to 1 µM throughout. Besides, in [2], the “AcH3 (EC50)” value is “N.E”. In addition, the “pCREB, increment in biological response vs basal” value with pCREB [4] is recorded as “+++ (basal×2≦(+++)<basal×3)”. Besides, the “AcH3, increment in biological response vs basal” value with AcH3 is reported as “N.E. (N.E. means No Effect)”. Besides, the “pTau, increment in biological response vs basal” value in the assay with pTau is reported as “+++ (basal×2≦(+++)<basal×3)”.

These data come from patent publication US9573956B2, “Compounds as dual inhibitors of phosphodiesterases and histone deacetylases” (FUNDACIÓN PARA LA INVESTIGACIÓN MÉDICA APLICADA, priority 2013, dated 2017).
